Measurements reported in PubChem BioAssay (NCI).
Several values for one entry are separate records, joined by “and”; a condition that tells them apart may be missing. Equal entries are not always repeated.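 A five-concentration, 48-hour dose response in 96-well plates underlies each endpoint, interpolated linearly between surrounding concentrations. GI50: concentration for 50% inhibition of growth. TGI marks complete inhibition of growth.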

What was measured:
Experiment in all cases: NCI-60 cell line screen, 48 h
IGROV1 ovarian = test system: IGROV1 ovarian
RPMI-8226 leukemia = test system: RPMI-8226 leukemia
SK-MEL-2 melanoma = test system: SK-MEL-2 melanoma
UACC-62 melanoma = test system: UACC-62 melanoma
KM12 colon = test system: KM12 colon
HT29 colon = test system: HT29 colon
HS 578T breast = test system: HS 578T breast
HCC-2998 colon = test system: HCC-2998 colon
MDA-N = test system: MDA-N
MDA-MB-231 breast = test system: MDA-MB-231 breast

Compound	GI50 (IGROV1 ovarian) [µM]	TGI (IGROV1 ovarian) [µM]	GI50 (RPMI-8226 leukemia) [µM]	TGI (RPMI-8226 leukemia)	GI50 (SK-MEL-2 melanoma) [µM]	TGI (SK-MEL-2 melanoma) [µM]	GI50 (UACC-62 melanoma) [µM]	TGI (UACC-62 melanoma) [µM]	GI50 (KM12 colon) [nM]	TGI (KM12 colon) [µM]	GI50 (HT29 colon) [nM]	TGI (HT29 colon) [µM]	TGI (HS 578T breast) [µM]	GI50 (HCC-2998 colon) [µM]	TGI (HCC-2998 colon) [µM]	TGI (MDA-N) [µM]	TGI (MDA-MB-231 breast) [µM]
N[C@H](C(=O)O)[C@H]1ON=C(Cl)[C@@H]1O	7.86	> 309	10.9	> 97.1 µM and 233 µM	9.75	> 550	17.5	> 550	2230	> 550	1240	> 296	97.5	5.62	> 173		
Cc1ccc(N2Cc3c(ccc4ccccc34)OP2(=O)Oc2ccc(Cl)c(C)c2)cc1 (stereo not drawn)		> 100		> 22.3 µM		> 100		> 100		> 100		> 100			> 100		
Nc1nc(SCc2ccc([N+](=O)[O-])cc2)nc2c1ncn2C1OC(COP(=O)(O)O)C(O)C1O (stereo not drawn)		> 100				> 100		> 100		> 100		> 100			> 100		
COc1cc2c(cc1OC)C(C(CO)CO)N(CC(O)CCl)CC2 (stereo not drawn)		> 100		> 100 µM		> 100		> 100		> 100		> 100			> 100		
Cc1ccc(S(=O)(=O)N/N=C(\c2nc3ccc(Cl)cc3[nH]c2=O)C(O)c2cccc([N+](=O)[O-])c2)cc1 (stereo not drawn)		> 100		> 100 µM		> 100		> 100		> 100		> 100			> 100		
CCOC(=O)c1cc(-c2cc(OC)c(OC)c([N+](=O)[O-])c2)c([N+](=O)[O-])n1C		> 10				> 10		> 10		> 10		> 10	> 10		> 10		
CCCSc1ccc2[nH]c(N3C(=O)/C(=C/c4ccco4)N=C3c3ccccc3)cc2c1		> 50		> 50 µM		24.4		> 50		> 50		> 50			> 50	20.1	
COc1cc(C2c3cc4c(cc3[C@@H](Nc3ccccc3)C3COC[C@H]23)OCO4)cc(OC)c1O (stereo partly drawn)		> 100		5.22 µM						32.5		45.5	12.4		> 100	> 100	24.5
O=c1[nH]c(=O)n(C2OC(COP(=O)(O)OP(=O)(O)OC3OC(CO)C(O)C(O)C3O)C(O)C2O)cc1F (stereo not drawn)		6.26				> 91.3		3.16		10.7		> 100			> 100		
CC(NC(=O)C(C)NC(=O)C(N)CCP(C)(=O)O)C(=O)O (stereo not drawn)		> 100		> 100 µM		> 100		> 100		> 100		> 100			> 100		
CC(O)c1cc2c(s1)C(=O)c1sccc1C2=O (stereo not drawn)		0.725				0.215		0.126		0.593		0.597	> 100		0.402	0.0367	
O=C1c2ccc(O)cc2C(=O)c2ccc(O)cc21		> 100		> 100 µM		> 100		> 100		> 100		> 100			> 100		
COC(=O)[C@@H]1[C@@H](c2cccc(Cl)c2)[C@H](C(=O)OC)C2(C[C@@]1(C)O)NCCS2 (stereo partly drawn)		> 100				94		> 100		> 100		> 100	> 100			> 100	> 100
Cn1c(=O)c(C(=O)Nc2nc(C34CC5CC(CC(C5)C3)C4)cs2)c(O)c2ccccc21		> 100		> 100 µM						> 100		> 100	> 100		> 100	> 100	> 100
NC(N)=N/N=C/c1nc2n(c1[N+](=O)[O-])CCS2		> 100		> 100 µM		44.7		> 100		> 100		> 100	> 100			> 100	> 100
O=S(=O)(CCBr)CCBr		18.8		12.1 µM		26		11		30		20.3			18.1		
COc1cc2c(c(OC)c1OC)-c1ccc(SC)c(=O)cc1[C@@H](NCc1ccc(C#N)cc1)CC2		> 100		> 100 µM											0.00662		
CCOC(=O)C1=CNC(C(=O)OCC)C1c1cccn1-c1ccc(Cl)cc1[N+](=O)[O-] (stereo not drawn)		29.9				34.8		35		47.5		30.8	50.5		51.9	54.8	27.2
CCOC(=O)c1ccc(Nc2c3c(nc4ccccc24)CCCC3)cc1		> 100		> 100 µM		> 100		> 100		> 100		> 100	> 100		> 100		> 100
C[C@]12CCC(=O)C=C1CC[C@@H]1[C@@H]2[C@@H](O)C[C@@]2(C)[C@H]1CC[C@]2(O)C(=O)COC(=O)COCC(=O)O		> 100		> 100 µM		> 100		> 100		> 100		> 100			> 100		
O=C1Nc2ccccc2C12CCNC2Cc1ccccc1 (stereo not drawn)		> 100		> 100 µM		> 100		> 100		> 100		> 100			> 100		
COC(=O)/C=C\n1c(C)cc(=O)[nH]c1=O		> 100		> 100 µM		> 100		> 100		> 100		> 100	> 100		> 100	> 100	
CC(C)OP(=O)(OC(C)C)/C(I)=N/Nc1ccc([N+](=O)[O-])cc1		> 100		> 100 µM		> 100		> 100		> 100		> 100			> 100		
CN(C)c1ccc(C(=C(c2ccc(N(C)C)cc2)c2ccc(N(C)C)cc2)c2ccc(N(C)C)cc2)cc1		34		47.6 µM		28.5		36.1		47.8		35.2			35.3		
